The target of one assay is T1, (UniProt G7TDB2).
T1 construct: gene XOC_2102
Description: biochemical.

The next assay deals with T2, (UniProt G7TKC9).
T2 construct: gene XOC_4190
Put plainly: biochemical.

The target in the next assay is T3, XOC_4190ΔG.
T3 construct: gene XOC_4190

T2 sequence (G7TKC9 1-656 limits assumed): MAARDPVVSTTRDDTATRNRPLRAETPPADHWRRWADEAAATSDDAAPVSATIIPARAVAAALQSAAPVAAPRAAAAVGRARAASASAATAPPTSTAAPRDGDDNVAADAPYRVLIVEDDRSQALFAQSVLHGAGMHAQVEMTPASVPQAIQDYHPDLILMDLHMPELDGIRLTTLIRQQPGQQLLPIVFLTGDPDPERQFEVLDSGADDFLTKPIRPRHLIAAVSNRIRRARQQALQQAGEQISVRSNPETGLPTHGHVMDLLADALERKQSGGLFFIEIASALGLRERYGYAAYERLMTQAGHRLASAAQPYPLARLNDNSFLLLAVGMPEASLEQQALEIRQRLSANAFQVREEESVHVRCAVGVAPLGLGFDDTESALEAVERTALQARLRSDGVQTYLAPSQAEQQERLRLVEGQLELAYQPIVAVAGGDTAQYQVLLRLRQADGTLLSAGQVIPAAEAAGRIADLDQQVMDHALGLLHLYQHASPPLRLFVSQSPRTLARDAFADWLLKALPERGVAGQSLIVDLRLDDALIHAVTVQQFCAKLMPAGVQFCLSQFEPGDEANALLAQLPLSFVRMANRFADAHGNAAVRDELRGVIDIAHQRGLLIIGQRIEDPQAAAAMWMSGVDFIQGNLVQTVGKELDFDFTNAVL
T1 sequence (G7TDB2 1-689): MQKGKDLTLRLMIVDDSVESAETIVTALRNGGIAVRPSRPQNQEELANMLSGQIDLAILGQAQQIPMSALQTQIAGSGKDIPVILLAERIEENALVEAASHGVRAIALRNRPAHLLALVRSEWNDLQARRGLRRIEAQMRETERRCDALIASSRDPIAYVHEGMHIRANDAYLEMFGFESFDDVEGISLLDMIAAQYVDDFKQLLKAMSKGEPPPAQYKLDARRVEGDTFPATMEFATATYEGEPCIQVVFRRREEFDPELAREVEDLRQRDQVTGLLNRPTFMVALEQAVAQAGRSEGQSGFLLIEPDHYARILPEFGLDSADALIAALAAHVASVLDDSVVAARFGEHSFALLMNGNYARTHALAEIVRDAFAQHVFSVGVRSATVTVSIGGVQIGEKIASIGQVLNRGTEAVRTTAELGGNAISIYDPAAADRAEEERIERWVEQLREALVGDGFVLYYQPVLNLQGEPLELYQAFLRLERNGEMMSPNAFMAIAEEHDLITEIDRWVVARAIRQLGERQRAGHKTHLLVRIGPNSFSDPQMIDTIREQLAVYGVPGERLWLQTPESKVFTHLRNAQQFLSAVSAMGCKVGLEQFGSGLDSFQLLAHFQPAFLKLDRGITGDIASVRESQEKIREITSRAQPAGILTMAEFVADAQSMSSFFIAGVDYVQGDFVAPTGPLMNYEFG

`Nc1nc2c(ncn2[C@@H]2O[C@@H]3COP(=O)(O)O[C@H]4[C@@H](O)[C@H](n5cnc6c(=O)[nH]c(N)nc65)O[C@@H]4COP(=O)(O)O[C@H]3[C@H]2O)c(=O)[nH]1` [c-di-GMP]: the figures for the Kd at (UniProt G7TDB2), on (UniProt G7TKC9) and on XOC_4190ΔG were 2.9 ± 0.13 µM, 4.59 ± 0.36 µM and 4.46 ± 0.28 µM, respectively.

For orientation: Kd means the equilibrium constant for the complex coming apart. Lower therefore signals higher affinity.
